The results in this text go back to US20190151283A1, “NON-STEROIDAL SELECTIVE GLUCOCORTICOID RECEPTOR AGONISTIC MODULATORS (SEGRAMs) AND USES THEREOF” (ASSOCIATION POUR LA RECHERCHE À L'IGBMC (ARI), priority 2017, published 2019).

The subject of series [1] is Balb/C mouse ears. Put plainly: Aldara-induced psoriasis-like skin inflammation. The settings on record: for induced expression of the Th17 cytokines IL-17a, IL-17c, IL-17f and IL-22: ear extracts, q-RT-PCR, D10; for Aldara-induced psoriasis-like skin inflammation, H&E histology: mouse, in vivo; for Aldara-induced psoriasis-like skin inflammation: topical co-treatment for the last 5 days, 1 nmole/cm^2. The series is classed as in vivo. The protocol: Balb/C mouse ears were topically treated with Aldara® to induce a psoriasis-like skin inflammation (Vinter et al., 2015. Br J Dermatol. 172(2):345-53). Mice were treated for 9 days with Aldara®, including a co-topical treatment for the last 5 days with either ethanol (Vehicle), Dex, CpdX or CpdX-D3.
At D10, RNA transcripts were extracted from mouse ears and IL-17a, IL-17c, IL-17f and IL-22 transcripts were analyzed by q-RT-PCR. Ear skin samples were also harvested for histological analyses (with H&E staining).

Another series relates to B6 male mice. Put plainly: Body weight and body composition after three-month treatment. To be noted: s.c. 1 mg/kg daily, 3 months, pDEXA. The class given is in vivo, mouse. As for the experimental part: B6 male mice (8-week-old) were daily subjected for three months to a subcutaneous injection of either vehicle (NaCl 0.9%), Dex, CpdX or CpdX-D3 (1 mg/kg body weight, diluted in vehicle. A pDEXA machine was used to determine the lean mass and fat mass. The statistical significance was calculated through Krustal-Walis test followed by a Dunn's multiple comparison test, *p<0.05; **p<0.01; ***p<0.001.

The test system of series [2] is Balb/C mouse ears. The series is described as follows: TPA-induced irritant contact dermatitis-like inflammation. The class given is in vivo. To be noted: for TPA-induced ear skin inflammation, histological analysis: compared to the control; for TPA-induced ear skin inflammation, histological analysis / expression of TSLP in TPA-treated mouse epidermis: data not shown; for TPA-induced transcription of pro-inflammatory genes: ear extracts, q-RT-PCR, D10; for expression of TSLP in TPA-treated mouse epidermis: immunochemistry with TSLP-specific antibody; for TPA-induced skin inflammation: topical, 5 days co-treatment with TPA. The protocol:
Balb/C mouse ears were topically treated with TPA to induce an “irritant contact dermatitis-like inflammation”.
Mice were treated for 4 days with TPA, then for 5 extra days (until D9) with either vehicle, TPA alone, TPA and Dex, TPA and CpdX or TPA and CpdX-D3.
At D10, RNA transcripts were extracted from mouse ear skin samples and the transcripts of CCL4, COX2, MMP13, IL-1β, IL-6, TNF-α, TSLP, IL-22 and IL-23 were analyzed by q-RT-PCR. Ear skin was harvested, and histological (with H&E staining) and immunohistochemical (with anti-TSLP antibodies) analyses were carried out.

In series [3] the test system is Balb/C mouse ears. The series is described as follows: Calcipotriol (MC 903)-induced atopic dermatitis-like inflammation. The class given is in vivo. To be noted: for MC 903-induced ear skin inflammation, histological analysis: compared to the control; for MC 903-induced transcription of pro-inflammatory genes (MMP13, COX2, IL-1β, IL-6, IL-10, IL-13 and TSLP): ear extracts, q-RT-PCR, D23; for expression of the TSLP lymphokine in MC 903-treated mouse epidermis: immunohistochemistry, data not shown; for MC 903-induced skin inflammation: topical, 8 days co-treatment with MC 903. The protocol:
To investigate the CpdX anti-inflammatory activity in vivo, Balb/C mouse ears were topically treated with calcipotriol (MC 903, a vitamin D3 analogue), in order to induce an atopic dermatitis (AD)-like inflammation (Li et al., 2006. Proc Natl Acad Sci USA. 103[…].
Mice were treated for 14 days with MC 903, and then for 8 extra days (until D22) with either MC 903 alone (control), MC 903 and Dex, MC 903 and CpdX, MC 903 and CpdX(eA), MC 903 and CpdX(eB), MC 903 and CpdX-D3, MC 903 and CpdX-D3(eA) and MC 903 and CpdX-D3(eB).
At D23, RNA transcripts were extracted from mouse ear skin samples and the transcripts of 7 cytokines (MMP13, COX2, IL-1β, IL-6, IL-10, IL-13 and TSLP) were analyzed by q-RT-PCR. Ear skin was harvested and histological (with H&E staining) and immunohistochemical (with anti-TSLP antibodies) analyses were carried out.

In series [4] the target is T1, glucocorticoid receptor (GR) (Mus musculus, UniProt P06537).
T1 construct: RNA transcripts were then extracted from mouse ears; from tissue; host or cells: ear skin of Balb/C mice (in vivo topical treatment)
T1 sequence (P06537 1-792): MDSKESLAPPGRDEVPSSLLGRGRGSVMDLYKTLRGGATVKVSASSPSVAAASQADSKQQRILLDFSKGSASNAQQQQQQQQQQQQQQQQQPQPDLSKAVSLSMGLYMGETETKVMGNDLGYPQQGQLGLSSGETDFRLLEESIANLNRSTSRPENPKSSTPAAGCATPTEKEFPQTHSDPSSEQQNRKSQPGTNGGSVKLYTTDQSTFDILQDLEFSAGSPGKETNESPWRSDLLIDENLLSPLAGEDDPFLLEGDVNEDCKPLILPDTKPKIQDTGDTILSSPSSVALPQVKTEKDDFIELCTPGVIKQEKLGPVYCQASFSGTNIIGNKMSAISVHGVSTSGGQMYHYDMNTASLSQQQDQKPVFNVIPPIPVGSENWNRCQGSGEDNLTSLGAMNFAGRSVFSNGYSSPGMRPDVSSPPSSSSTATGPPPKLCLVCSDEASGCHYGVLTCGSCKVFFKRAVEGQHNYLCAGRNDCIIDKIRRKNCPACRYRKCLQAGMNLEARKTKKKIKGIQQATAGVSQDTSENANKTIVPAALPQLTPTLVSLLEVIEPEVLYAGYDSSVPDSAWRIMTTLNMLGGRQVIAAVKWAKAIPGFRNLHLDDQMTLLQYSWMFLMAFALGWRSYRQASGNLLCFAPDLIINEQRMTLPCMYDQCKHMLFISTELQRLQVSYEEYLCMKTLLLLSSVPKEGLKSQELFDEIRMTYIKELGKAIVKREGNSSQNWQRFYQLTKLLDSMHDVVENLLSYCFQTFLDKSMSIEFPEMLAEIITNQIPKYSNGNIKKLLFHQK
The series is described as follows: GR transcriptional functions in mouse ears after topical 18-hour treatment (q-RT-PCR). The class given is in vivo. The protocol: RNA transcripts were then extracted from mouse ears and the transcripts of 4 genes were analyzed by q-RT-PCR: • (i) the directly GR-transactivated gene of the mTOR inhibitor REDD1, • (ii) the GR-directly transrepressed gene of keratin 5 (K5) and • (iii) the GR-indirectly “tethered” transrepressed genes of interleukin-1β (IL-1β) and interleukin-6 (IL-6), both being activated in presence of 12-O-tetradecanoylphorbol-13-acetate (TPA).

Setting [5] is: topical 18 h, 1 nmole/cm^2, q-RT-PCR, vs Vehicle.

As to `[2H]C([2H])([2H])Oc1ccc(F)cc1C(C)(C)CC(O)(CNc1ccc2c(c1)COC2=O)C(F)(F)F` (racemic) [CpdX-D3, 5-{4-[2-(methoxy-D3)-5-fluorophenyl]-2-hydroxy-4-methyl-2-(trifluoro-methyl)pentylamino}isobenzofuran-1(3H)-one], in the series on Balb/C mouse ears [1], the “induced expression of the Th17 cytokines IL-17a, IL-17c, IL-17f and IL-22” value was “similarly reduced”; the “Aldara-induced psoriasis-like skin inflammation, H&E histology” value was “could reduce”; the “Aldara-induced psoriasis-like skin inflammation” value is given as “significantly decreased”. In the series on B6 male mice, the fat mass result is reported as “commensurate increase” and the “lean percentage / lean mass” value is “commensurate increase”. Also, in the series on Balb/C mouse ears [2], the “TPA-induced ear skin inflammation, histological analysis” value was “significantly decreased”; the “TPA-induced transcription of pro-inflammatory genes” value is “repressed, as efficiently as Dex”; the “expression of TSLP in TPA-treated mouse epidermis” value is “similarly strongly decreased”; the TPA-induced skin inflammation entry is on record as “significantly decreased”. In addition, in the series with Balb/C mouse ears [3], the “MC 903-induced ear skin inflammation, histological analysis” value is “decreased”; the “MC 903-induced transcription of pro-inflammatory genes (MMP13, COX2, IL-1β, IL-6, IL-10, IL-13 and TSLP)” value was “repressed, as efficiently as Dex”; the “expression of the TSLP lymphokine in MC 903-treated mouse epidermis” value was “similarly strongly decreased”; the “MC 903-induced skin inflammation” value is given as “significantly decreased”.
For `COc1ccc(F)cc1C(C)(C)CC(O)(CNc1ccc2c(c1)COC2=O)C(F)(F)F` (racemic) [CpdX, 5-[4-(5-fluoro-2-methoxyphenyl)-2-hydroxy-4-methyl-2-(trifluoromethyl)pentylamino]-isobenzofuran-1(3H)-one], in the series on Balb/C mouse ears [1], the “induced expression of the Th17 cytokines IL-17a, IL-17c, IL-17f and IL-22” value is “similarly reduced”; the “Aldara-induced psoriasis-like skin inflammation, H&E histology” value is “could reduce”; the “Aldara-induced psoriasis-like skin inflammation” value is listed as “significantly decreased”. In the series with B6 male mice, the fat mass entry is recorded as “commensurate increase” and the “lean percentage / lean mass” value was “commensurate increase”. Further, the “GR functions induced (direct transactivation, direct transrepression, indirect tethered transrepression)” value in series [4] (in vivo transcriptional analyses, 1 nmole/cm^2) is “selectively exhibits an indirect tethered transrepression activity”. In addition, in series [4] (setting [5]), the “direct transrepression of the K5 gene (relative RNA expression)” value is listed as “unchanged” and the “transactivation of the REDD1 gene (relative RNA expression)” value is “unchanged”. Besides, in the series with Balb/C mouse ears [2], the “TPA-induced ear skin inflammation, histological analysis” value is “significantly decreased”; the “TPA-induced transcription of pro-inflammatory genes” value was “repressed, as efficiently as Dex”; the “expression of TSLP in TPA-treated mouse epidermis” value was “similarly strongly decreased”; the TPA-induced skin inflammation entry is “significantly decreased”. Besides, in the series with Balb/C mouse ears [3], the “MC 903-induced ear skin inflammation, histological analysis” value is recorded as “decreased”; the “MC 903-induced transcription of pro-inflammatory genes (MMP13, COX2, IL-1β, IL-6, IL-10, IL-13 and TSLP)” value is listed as “repressed, as efficiently as Dex”; the “expression of the TSLP lymphokine in MC 903-treated mouse epidermis” value is “similarly strongly decreased”; the “MC 903-induced skin inflammation” value is “significantly decreased”.
